Reference: ChEMBL document CHEMBL1134846, “Substituted pyrazolopyridines as potent and selective PDE5 inhibitors: potential agents for treatment of erectile dysfunction” (J Med Chem, 2001)

Tests used:
[1] = target: T1, cGMP-specific 3',5'-cyclic phosphodiesterase (Homo sapiens, UniProt O76074); test: Inhibition of PDE5 of human platelets
[2] = Selectivity for PDE5 of human platelets over PDE1 of bovine heart
[3] = Selectivity for PDE5 of human platelets over PDE4 of rat kidney
[4] = Selectivity for PDE5 of human platelets over PDE2 of rat kidney
[5] = Selectivity for PDE5 of human platelets over PDE6 of bovine retina
[6] = Half life was determined in dogs after a dose of 23 uM/kg.; format: ADME, organism-based, Canis lupus familiaris; details: dog, in vivo
[7] = Bioavailability was determined in male rats after a dose of 21 uM/kg.; format: ADME, organism-based; details: rat, in vivo
[8] = Half life was determined in male rats after a dose of 21 uM/kg.; format: ADME, organism-based; details: rat, in vivo
[9] = Bioavailability was determined in dogs after a dose of 23 uM/kg.; format: ADME, organism-based, Canis lupus familiaris; details: dog, in vivo
[10] = target: T1, cGMP-specific 3',5'-cyclic phosphodiesterase; test: Relaxant effect on rabbit corpus cavernosal tissue strips; format: tissue-based, Oryctolagus cuniculus, Corpus cavernosum; details: target entry is the homologue from another species
[11] = Bioavailability was determined in dogs.; format: ADME, organism-based, Canis lupus familiaris; details: dog, in vivo
[12] = Bioavailability was determined in male rats.; format: ADME, organism-based; details: rat, in vivo
[13] = Half life was determined in male rats.; format: ADME, organism-based; details: rat, in vivo
[14] = Half life was determined in dogs; format: ADME, organism-based, Canis lupus familiaris; details: dog, in vivo

Structure (SMILES) | IC50 [1] | IC50 ratio [2] | IC50 ratio [3] | IC50 ratio [4] | IC50 ratio [5] | other results
CCn1ncc2c(NCc3ccc(OC)c(Cl)c3)c(C(=O)O)cnc21 | 38 nM | – | – | – | – | –
CCn1ncc2c(NCc3ccc(OC)c(Cl)c3)c(C(=O)NC[C@@H]3CCCO3)cnc21 | 1.8 nM | 2500 | 760 | 8000 | 22 | –
CCn1ncc2c(NCc3ccc(OC)c(Cl)c3)c(C(=O)NCc3ccncc3)cnc21 | 0.8 nM | 6400 | 600 | 9200 | 47 | half-life [6]: 2.3 h; bioavailability [7]: 33%; half-life [8]: 1.2 h; bioavailability [9]: 66%; EC50 [10]: 44 nM
CCCCNc1c(C(=O)OCC)cnc2c1cnn2CC [CARTAZOLATE] | 180 nM | 43 | 1 | 45 | 2 | –
CCCc1nn(C)c2c(=O)[nH]c(-c3cc(S(=O)(=O)N4CCN(C)CC4)ccc3OCC)nc12 | – | – | – | – | – | bioavailability [11]: 54%; bioavailability [12]: 15%; half-life [13]: 0.3 h; half-life [14]: 5.2 h
CCn1ncc2c(N[C@@H](C)C3CCCCC3)c3cc(C#N)ccc3nc21 | 1 nM | – | – | – | – | –
CCn1ncc2c(NCc3ccc(OC)c(Cl)c3)c(C(=O)NCCCCCO)cnc21 | 1.4 nM | 2700 | 340 | 5200 | 35 | –
CCn1ncc2c(NCc3ccc(OC)c(Cl)c3)c(C(=O)NCCCN3CCCC3=O)cnc21 | 1.6 nM | 2900 | 460 | 3000 | 19 | –
